US20240409585A1, “MACROCYCLIC IMMUNOMODULATORS” (priority 2021, published 2024)
Read-outs that look alike come from different tables or passages of the source. Bridge positions count the residues as written; N and C are the ends. Square brackets hold non-standard residues; d marks the D form. Peptide text beside a SMILES is read from it. * marks the point of attachment. ξ: configuration not given here. Phe(4-COOH) = N[C@@H](Cc1ccc(C(=O)O)cc1)C(=O)O; Ala(4-thiazolyl) = N[C@@H](Cc1cscn1)C(=O)O; Bip = N[C@@H](Cc1ccc(-c2ccccc2)cc1)C(=O)O; Tyr(3-I) = N[C@@H](Cc1ccc(O)c(I)c1)C(=O)O; Phe(3-CN) = N#Cc1cccc(C[C@H](N)C(=O)O)c1; dPhe(4-Br) = N[C@H](Cc1ccc(Br)cc1)C(=O)O; Phe(3-F) = N[C@@H](Cc1cccc(F)c1)C(=O)O; Phe(3-Me) = Cc1cccc(C[C@H](N)C(=O)O)c1; Val(3-OH) = CC(C)(O)[C@H](N)C(=O)O; aIle = CC[C@@H](C)[C@H](N)C(=O)O; 3Pal = N[C@@H](Cc1cccnc1)C(=O)O; 4Pal = N[C@@H](Cc1ccncc1)C(=O)O; d4Pal = N[C@H](Cc1ccncc1)C(=O)O; Cha = N[C@@H](CC1CCCCC1)C(=O)O; Cit = NC(=O)NCCC[C@H](N)C(=O)O; Carboxymethyl = O=C(O)C*; NMeA = CN[C@@H](C)C(=O)O; Orn = NCCC[C@H](N)C(=O)O; Dab = NCC[C@H](N)C(=O)O; Dap = NC[C@H](N)C(=O)O; ξV = CC(C)C(N)C(=O)O

Target: T1, PE-labeled human PD-L1-Ig binding to Jurkat cell line over-expressing human PD-1 (Jurkat-PD-1) (Homo sapiens, UniProt Q15116)
T1 construct: expressed in transfected cells; host or cells: Jurkat
T1 sequence (Q15116 25-288): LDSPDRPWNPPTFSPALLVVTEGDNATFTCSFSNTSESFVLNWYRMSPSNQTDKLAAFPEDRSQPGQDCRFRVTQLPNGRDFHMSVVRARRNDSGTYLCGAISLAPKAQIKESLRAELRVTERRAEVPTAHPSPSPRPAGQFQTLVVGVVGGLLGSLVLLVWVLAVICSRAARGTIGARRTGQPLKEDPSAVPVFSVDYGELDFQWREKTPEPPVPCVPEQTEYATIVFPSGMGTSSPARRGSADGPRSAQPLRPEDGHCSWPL
Experiment: Jurkat-PD-1 Cell Binding High-Content Screening Assay (CBA): Method 1
Details: Jurkat-hPD-1 cells, PE-labeled PD-L1-Ig 20 nM final

[1] = read-out: Jurkat HPDL1 PD1 IC50 (uM) (Method 1)

SMILES | IC50 [1] | IC50 (Jurkat HPDL1 PD1 IC50 (uM) (Method 1))
Cc1cccc(C[C@@H]2NC(=O)[C@H](CC(=O)O)NC(=O)[C@H](Cc3ccc(OCC(=O)O)cc3)NC(=O)[C@H](Cc3ccc(OCC(=O)O)cc3)NC(=O)CSC[C@@H](C(N)=O)NC(=O)[C@H](CC(=O)O)NC(=O)[C@H](C(C)C)NC(=O)[C@H](CC3CCCCC3)NC(=O)[C@H](CCN)NC(=O)[C@@H](CC(C)C)NC(=O)[C@H](C)N(C)C(=O)[C@H](Cc3ccc(OCC(=O)O)cc3)NC(=O)[C@H](Cc3ccc(-c4ccccc4)cc3)NC(=O)[C@H](Cc3ccc(OCC(=O)O)cc3)NC2=O)c1 [Compound 1654] ({CH2CO}-Y(Carboxymethyl)Y(Carboxymethyl)D[Phe(3-Me)]Y(Carboxymethyl)[Bip]Y(Carboxymethyl)[NMeA][dL][Dab][Cha]VDC-NH2; thioether N-14) | 0.08 µM | 
CC(C)C[C@@H]1NC(=O)[C@H](CCCNC(=N)N)NC(=O)[C@@H](Cc2ccncc2)NC(=O)[C@H](C)N(C)C(=O)[C@H](CCCNC(=N)N)NC(=O)[C@H](Cc2ccc(-c3ccccc3)cc2)NC(=O)[C@H](C(C)C)NC(=O)[C@H](Cc2c[nH]c3ccccc23)NC(=O)[C@H](CC(=O)O)NC(=O)[C@H](Cc2ccc(O)cc2)NC(=O)[C@H](Cc2ccccc2)NC(=O)CSC[C@@H](C(=O)N[C@@H](C)C(N)=O)NC(=O)[C@H]([C@@H](C)O)NC(=O)[C@H](C(C)C)NC1=O [Compound 1072] ({CH2CO}-FYDWV[Bip]R[NMeA][d4Pal]RLVTCA-NH2; thioether N-14) | 0.18 µM | 
CC(C)C[C@@H]1NC(=O)[C@H](CCCNC(=N)N)NC(=O)[C@@H](CC(C)C)NC(=O)[C@H](C)N(C)C(=O)[C@H](CCCNC(=N)N)NC(=O)[C@H](Cc2ccc(-c3ccccc3)cc2)NC(=O)[C@H](C(C)C)NC(=O)[C@H](Cc2c[nH]c3ccccc23)NC(=O)[C@H](CC(=O)O)NC(=O)[C@H](Cc2ccc(O)c(I)c2)NC(=O)[C@H](Cc2ccccc2)NC(=O)CSC[C@@H](C(=O)N[C@@H](C)C(N)=O)NC(=O)[C@H]([C@@H](C)O)NC(=O)[C@H](C(C)C)NC1=O [Compound 1109] ({CH2CO}-F[Tyr(3-I)]DWV[Bip]R[NMeA][dL]RLVTCA-NH2; thioether N-14) | 0.12 µM | 
CC(C)C[C@@H]1NC(=O)[C@H](CCCNC(=N)N)NC(=O)[C@@H](Cc2ccc(Br)cc2)NC(=O)[C@H](C)N(C)C(=O)[C@H](CCCNC(=N)N)NC(=O)[C@H](Cc2ccc(-c3ccccc3)cc2)NC(=O)[C@H](C(C)C)NC(=O)[C@H](Cc2c[nH]c3ccccc23)NC(=O)[C@H](CC(=O)O)NC(=O)[C@H](Cc2ccc(O)cc2)NC(=O)[C@H](Cc2ccccc2)NC(=O)CSC[C@@H](C(=O)N[C@@H](C)C(N)=O)NC(=O)[C@H]([C@@H](C)O)NC(=O)[C@H](C(C)C)NC1=O [Compound 1086] ({CH2CO}-FYDWV[Bip]R[NMeA][dPhe(4-Br)]RLVTCA-NH2; thioether N-14) | 0.69 µM | 
CC(C)C[C@@H]1NC(=O)[C@H](CCN)NC(=O)[C@@H](CC(C)C)NC(=O)[C@H](C)N(C)C(=O)[C@H](CCCNC(=N)N)NC(=O)[C@H](Cc2ccc(-c3ccccc3)cc2)NC(=O)[C@H](C(C)C)NC(=O)[C@H](Cc2c[nH]c3ccccc23)NC(=O)[C@H](CC(=O)O)NC(=O)[C@H](Cc2cnc[nH]2)NC(=O)[C@H](Cc2cccnc2)NC(=O)CSC[C@@H](C(=O)N[C@@H](C)C(N)=O)NC(=O)[C@H]([C@@H](C)O)NC(=O)[C@H](C(C)C)NC1=O [Compound 1157] ({CH2CO}-[3Pal]HDWV[Bip]R[NMeA][dL][Dab]LVTCA-NH2; thioether N-14) | 0.11 µM | 
CC(C)C[C@@H]1NC(=O)[C@H](CCCNC(=N)N)NC(=O)[C@@H](CC(C)C)NC(=O)[C@H](C)N(C)C(=O)[C@H](CCCNC(=N)N)NC(=O)[C@H](Cc2ccc(-c3ccccc3)cc2)NC(=O)[C@H](C(C)C)NC(=O)[C@H](Cc2cccc(F)c2)NC(=O)[C@H](CC(=O)O)NC(=O)[C@H](Cc2ccc(O)cc2)NC(=O)[C@H](CC(N)=O)NC(=O)CSC[C@@H](C(=O)N[C@@H](C)C(N)=O)NC(=O)[C@H]([C@@H](C)O)NC(=O)[C@H](C(C)C)NC1=O [Compound 1199] ({CH2CO}-NYD[Phe(3-F)]V[Bip]R[NMeA][dL]RLVTCA-NH2; thioether N-14) | 0.45 µM | 
Cc1cccc(C[C@@H]2NC(=O)[C@H](CC(=O)O)NC(=O)[C@H](Cc3ccc(OCC(=O)O)cc3)NC(=O)[C@H](Cc3ccncc3)NC(=O)CSC[C@@H](C(=O)N[C@@H](CCN)C(N)=O)NC(=O)[C@H](CO)NC(=O)[C@H](C(C)(C)O)NC(=O)[C@H](CC3CCCCC3)NC(=O)[C@H](CCN)NC(=O)[C@@H](CC(C)C)NC(=O)[C@H](C)N(C)C(=O)[C@H](CCCNC(N)=O)NC(=O)[C@H](Cc3ccc(-c4ccccc4)cc3)NC(=O)[C@H](Cc3ccc(OCC(=O)O)cc3)NC2=O)c1 [Compound 2201] ({CH2CO}-[4Pal]Y(Carboxymethyl)D[Phe(3-Me)]Y(Carboxymethyl)[Bip][Cit][NMeA][dL][Dab][Cha][Val(3-OH)]SC[Dab]-NH2; thioether N-14) | 0.01 µM | 
CC[C@@H](C)[C@@H]1NC(=O)[C@H](Cc2ccc(-c3ccccc3)cc2)NC(=O)[C@H](CC(C)C)NC(=O)[C@H](Cc2c[nH]c3ccccc23)NC(=O)[C@H](CC(=O)O)NC(=O)[C@H](Cc2ccc(C(=O)O)cc2)NC(=O)[C@H](Cc2ccc(OCC(=O)O)cc2)NC(=O)CSC[C@@H](C(=O)N[C@@H](CCCCN)C(N)=O)NC(=O)[C@H](Cc2cscn2)NC(=O)C(C(C)C)NC(=O)[C@H](CC(C)C)NC(=O)[C@H](CC(N)=O)NC(=O)[C@@H](CC(C)C)NC(=O)[C@H](C)N(C)C1=O (stereo partly drawn) [Compound 2107] ({CH2CO}-Y(Carboxymethyl)[Phe(4-COOH)]DWL[Bip][aIle][NMeA][dL]NL[ξV][Ala(4-thiazolyl)]CK-NH2; thioether N-14) | 0.24 µM | 
Cc1cccc(C[C@@H]2NC(=O)[C@H](CC(=O)O)NC(=O)[C@H](Cc3ccc(O)cc3)NC(=O)[C@H](CN)NC(=O)CSC[C@@H](C(=O)N[C@@H](C)C(N)=O)NC(=O)[C@H]([C@@H](C)O)NC(=O)[C@H](C(C)C)NC(=O)[C@H](CC(C)C)NC(=O)[C@H](CCN)NC(=O)[C@@H](CC(C)C)NC(=O)[C@H](C)N(C)C(=O)[C@H](C(C)C)NC(=O)[C@H](Cc3ccc(-c4ccccc4)cc3)NC(=O)[C@H](C(C)C)NC2=O)c1 [Compound 1428] ({CH2CO}-[Dap]YD[Phe(3-Me)]V[Bip]V[NMeA][dL][Dab]LVTCA-NH2; thioether N-14) | 0.04 µM | 
CC(C)C[C@@H]1NC(=O)[C@H](Cc2c[nH]c3ccccc23)NC(=O)[C@H](CC(=O)O)NC(=O)[C@H](Cc2ccc(O)cc2)NC(=O)[C@H](Cc2ccccc2)NC(=O)CSC[C@@H](C(=O)N[C@@H](C)C(N)=O)NC(=O)[C@H]([C@@H](C)O)NC(=O)[C@H](C(C)C)NC(=O)[C@H](CC(C)C)NC(=O)[C@H](CCN)NC(=O)[C@@H](C)NC(=O)[C@H](C)N(C)C(=O)[C@H](C(C)C)NC(=O)[C@H](Cc2ccc(-c3ccccc3)cc2)NC1=O [Compound 1478] ({CH2CO}-FYDWL[Bip]V[NMeA][dA][Dab]LVTCA-NH2; thioether N-14) | 0.02 µM | 
CC(C)C[C@@H]1NC(=O)[C@H](CCCN)NC(=O)[C@@H](CC(C)C)NC(=O)[C@H](C)N(C)C(=O)[C@H](CCCNC(=N)N)NC(=O)[C@H](Cc2ccc(-c3ccccc3)cc2)NC(=O)[C@H](C(C)C)NC(=O)[C@H](Cc2c[nH]c3ccccc23)NC(=O)[C@H](CC(=O)O)NC(=O)[C@H](Cc2cnc[nH]2)NC(=O)[C@H](Cc2cnc[nH]2)NC(=O)CSC[C@@H](C(=O)N[C@@H](C)C(N)=O)NC(=O)[C@H]([C@@H](C)O)NC(=O)[C@H](C(C)C)NC1=O [Compound 1136] ({CH2CO}-HHDWV[Bip]R[NMeA][dL][Orn]LVTCA-NH2; thioether N-14) | 0.21 µM | 
C=C1N[C@@H](Cc2ccccc2)C(=O)N(C)[C@@H](C)C(=O)N[C@H](CC(C)C)C(=O)N[C@@H](CC(N)=O)C(=O)N[C@@H](CC(C)C)C(=O)N[C@@H](Cc2ccccc2)C(=O)N[C@@H](CO)C(=O)N[C@H](C(=O)N[C@@H](C)C(N)=O)CSCC(=O)N[C@@H](Cc2ccc(OCC(=O)O)cc2)C(=O)N[C@@H](Cc2ccc(C(=O)O)cc2)C(=O)N[C@@H](CC(=O)O)C(=O)N[C@@H](Cc2cccc(C)c2)C(=O)N[C@@H](CC(C)C)C(=O)N[C@H]1Cc1ccc(-c2ccccc2)cc1 [Compound 1585] |  | 0.73 µM
CC[C@@H](C)[C@@H]1NC(=O)[C@H](Cc2ccc(-c3ccccc3)cc2)NC(=O)[C@H](CC(C)C)NC(=O)[C@H](Cc2c[nH]c3ccccc23)NC(=O)[C@H](CC(=O)O)NC(=O)[C@H](Cc2ccc(C(=O)O)cc2)NC(=O)[C@H](Cc2ccc(OCC(=O)O)cc2)NC(=O)CSC[C@@H](C(=O)N[C@@H](CCCCN)C(N)=O)NC(=O)[C@H](Cc2cnc[nH]2)NC(=O)C(C(C)C)NC(=O)[C@H](CC(C)C)NC(=O)[C@H](CC(N)=O)NC(=O)[C@@H](CC(C)C)NC(=O)[C@H](C)N(C)C1=O (stereo partly drawn) [Compound 2104] ({CH2CO}-Y(Carboxymethyl)[Phe(4-COOH)]DWL[Bip][aIle][NMeA][dL]NL[ξV]HCK-NH2; thioether N-14) | 0.05 µM | 
CC(C)C[C@@H]1NC(=O)[C@H](CCN)NC(=O)[C@@H](CC(C)C)NC(=O)[C@H](C)N(C)C(=O)[C@H](CCCNC(=N)N)NC(=O)[C@H](Cc2ccc(-c3ccccc3)cc2)NC(=O)[C@H](C(C)C)NC(=O)[C@H](Cc2c[nH]c3ccccc23)NC(=O)[C@H](CC(=O)O)NC(=O)[C@H](Cc2ccc(O)cc2)NC(=O)[C@H](CC(N)=O)NC(=O)CSC[C@@H](C(=O)N[C@H](C)C(N)=O)NC(=O)[C@H]([C@@H](C)O)NC(=O)[C@H](C(C)C)NC1=O [Compound 1183] ({CH2CO}-NYDWV[Bip]R[NMeA][dL][Dab]LVTC[dA]-NH2; thioether N-14) | 0.15 µM | 
CC(C)C[C@@H]1NC(=O)[C@H](CCN)NC(=O)[C@@H](CC(C)C)NC(=O)[C@H](C)N(C)C(=O)[C@H](C(C)C)NC(=O)[C@H](Cc2ccc(-c3ccccc3)cc2)NC(=O)[C@H](C(C)C)NC(=O)[C@H](Cc2c[nH]c3ccccc23)NC(=O)[C@H](CC(=O)O)NC(=O)[C@H](Cc2cccc(C#N)c2)NC(=O)[C@H](CC(N)=O)NC(=O)CSC[C@@H](C(=O)N[C@@H](C)C(N)=O)NC(=O)[C@H]([C@@H](C)O)NC(=O)[C@H](C(C)C)NC1=O [Compound 1380] ({CH2CO}-N[Phe(3-CN)]DWV[Bip]V[NMeA][dL][Dab]LVTCA-NH2; thioether N-14) | 0.02 µM | 
